For one assay, the system named is Cryptococcus neoformans. The experiment in a line: Concentration that substantially inhibit the growth of Cryptococcus neoformans. In kind it is functional.
The test system of another assay is Candida albicans. In words: Concentration that substantially inhibit growth of Candida albicans. It is filed as functional, organism-based.

Molecules are shown by their SMILES. Converted amounts (≈) assume the structure as drawn.

The record followed here is ChEMBL document CHEMBL1135126, “Identification of novel antifungal nonapeptides through the screening of combinatorial peptide libraries based on a hexapeptide motif” (Bioorg Med Chem Lett, 2002).

`CC[C@H](C)[C@H](NC(=O)[C@@H](Cc1ccccc1)NC(=O)[C@@H](Cc1c[nH]c2ccccc12)NC(=O)[C@@H](N)CCCN=C(N)N)C(=O)N[C@H](Cc1ccccc1)C(=O)N[C@@H](Cc1c[nH]cn1)C(=O)N[C@@H](CCCCN)C(=O)N[C@@H](CCCCN)C(=O)N1CCC[C@H]1C(N)=O` showed a minimum inhibitory concentration (MIC) in the assay on Cryptococcus neoformans of 2.43 µM (≈ 3.06 µg/mL). The same compound registered an IC50 with Candida albicans of 3.89 µM.
In the assay on Cryptococcus neoformans, `CC[C@H](C)[C@H](NC(=O)[C@@H](Cc1ccccc1)NC(=O)[C@@H](Cc1c[nH]c2ccccc12)NC(=O)[C@@H](N)CCCN=C(N)N)C(=O)N[C@H](Cc1ccccc1)C(=O)N[C@@H](Cc1c[nH]cn1)C(=O)N[C@@H](CCCCN)C(=O)N[C@@H](CCCN=C(N)N)C(=O)N[C@@H](CO)C(N)=O` displayed an MIC of 4.89 µM (≈ 6.24 µg/mL). Besides, the IC50 with Candida albicans was found to be 4.38 µM.
For the compound `CC[C@H](C)[C@H](NC(=O)[C@@H](Cc1ccccc1)NC(=O)[C@@H](Cc1c[nH]c2ccccc12)NC(=O)[C@@H](N)CCCN=C(N)N)C(=O)N[C@H](Cc1ccccc1)C(=O)N[C@@H](Cc1c[nH]cn1)C(=O)N[C@@H](CCCCN)C(=O)N[C@@H](CCCCN)C(=O)N[C@@H](CC(N)=O)C(N)=O`, the MIC against Cryptococcus neoformans is 2.4 µM (≈ 3.06 µg/mL). In the assay with Candida albicans, the 50% inhibitory concentration (IC50) amounted to 3.35 µM.
`CC[C@H](C)[C@H](NC(=O)[C@@H](Cc1ccccc1)NC(=O)[C@@H](Cc1c[nH]c2ccccc12)NC(=O)[C@@H](N)CCCN=C(N)N)C(=O)N[C@H](Cc1ccccc1)C(=O)N[C@@H](Cc1c[nH]cn1)C(=O)N[C@@H](CCCCN)C(=O)N[C@@H](CCCCN)C(=O)N[C@@H](Cc1ccc(O)cc1)C(N)=O` returned an MIC against Cryptococcus neoformans of 1.16 µM (≈ 1.54 µg/mL). Moreover, in the assay with Candida albicans, inhibition was half-maximal at 2.74 µM (IC50).
Take `CC[C@H](C)[C@H](NC(=O)[C@@H](Cc1ccccc1)NC(=O)[C@@H](Cc1c[nH]c2ccccc12)NC(=O)[C@@H](N)CCCN=C(N)N)C(=O)N[C@H](Cc1ccccc1)C(=O)N[C@@H](Cc1c[nH]cn1)C(=O)N[C@@H](CCCCN)C(=O)N[C@@H](CCCN=C(N)N)C(=O)N[C@@H](CCCN=C(N)N)C(N)=O`: the MIC against Cryptococcus neoformans worked out at 4.64 µM (≈ 6.24 µg/mL). 4.15 µM corresponded to half-maximal inhibition in the assay on Candida albicans (IC50).
On to `CC[C@H](C)[C@H](NC(=O)[C@@H](Cc1ccccc1)NC(=O)[C@@H](Cc1c[nH]c2ccccc12)NC(=O)[C@@H](N)CCCN=C(N)N)C(=O)N[C@H](Cc1ccccc1)C(=O)N[C@@H](Cc1c[nH]cn1)C(=O)N[C@@H](CCCCN)C(=O)N[C@@H](CCCN=C(N)N)C(=O)N[C@@H](CC(C)C)C(N)=O`, for which the minimal inhibitory concentration (MIC) in the assay with Cryptococcus neoformans was 2.39 µM (≈ 3.11 µg/mL). In the assay with Candida albicans, this compound showed a 50% inhibitory concentration (IC50) of 4.37 µM.
In the case of `CC[C@H](C)[C@H](NC(=O)[C@@H](Cc1ccccc1)NC(=O)[C@@H](Cc1c[nH]c2ccccc12)NC(=O)[C@@H](N)CCCN=C(N)N)C(=O)N[C@H](Cc1ccccc1)C(=O)N[C@@H](Cc1c[nH]cn1)C(=O)N[C@@H](CCCCN)C(=O)N[C@@H](CCCN=C(N)N)C(=O)N1CCC[C@H]1C(N)=O`, in the assay on Cryptococcus neoformans, the MIC is 2.42 µM (≈ 3.11 µg/mL). In addition, the IC50 in the assay on Candida albicans turned out to be 4.7 µM.
Compound `CC[C@H](C)[C@H](NC(=O)[C@@H](Cc1ccccc1)NC(=O)[C@@H](Cc1c[nH]c2ccccc12)NC(=O)[C@@H](N)CCCN=C(N)N)C(=O)N[C@H](Cc1ccccc1)C(=O)N[C@@H](Cc1c[nH]cn1)C(=O)N[C@@H](CCCCN)C(=O)N[C@@H](CCCN=C(N)N)C(=O)NCC(N)=O` came in with an MIC against Cryptococcus neoformans of 2.5 µM (≈ 3.11 µg/mL). The IC50 with Candida albicans was 4.48 µM.
